How the values were obtained:
[1] = test system: blackgrass; assay: Test B postemergence herbicide test; assay type: in vivo, Alopecurus myosuroides; settings: postemergence, visual rating, scale 0 (no effect) to 100 (complete control)
Summary of the method: (§1)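 Plants grow to 1- to 4-leaf stage (2–18 cm) for postemergence spraying, or to 2-leaf stage for the paddy test. Formulated compound is applied. Greenhouse holding lasts 13–15 days. Response is scored visually relative to controls, 0 no effect to 100 complete control; a dash means no result.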

[2] = test system: cocklebur; assay: Test B pre-/postemergence herbicide test; assay type: in vivo, Xanthium strumarium; settings: for Cocklebur plant response rating: postemergence, scale 0 (no effect) to 100 (complete control)
Summary of the method: (§2)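 Species tested were Echinochloa crus-galli, Ipomoea coccinea, Xanthium strumarium and Oryza sativa, treated both before emergence and at the 1- to 4-leaf stage; rice and barnyardgrass were also tested under flooding at 2 leaves. Greenhouse incubation lasted 13–15 days before visual 0–100 scoring.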

[3] = test system: rice; assay: Test B pre-/postemergence herbicide test; assay type: in vivo, Oryza sativa; settings: 0 = no effect, 100 = complete control, preemergence
Summary of the method: (§3)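 Response was scored visually 13 to 15 days after treatment against untreated greenhouse controls, 0 meaning no effect and 100 complete control. Formulations (solvent mixture plus surfactant) went onto soil after planting, onto foliage of 1- to 4-leaf plants, and onto 2-leaf plants in a flooded paddy set including rice and barnyardgrass.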

[4] = test system: wheat; assay: Test B postemergence herbicide test; assay type: in vivo, Triticum aestivum; design: key to Wheat plant response rating: 0 = no effect, 100 = complete control; settings: postemergence, visual rating, scale 0 (no effect) to 100 (complete control)
Summary of the method: (§4)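 Formulated test chemicals went onto postemergence plants measuring 2 to 18 cm, at one to four leaves. For the paddy assay, species had reached two leaves. Scoring took place 13–15 days later by eye, relative to untreated plants, using 0 for no effect up to 100 for full control.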

[5] = test system: barnyardgrass; assay: Test B pre-/postemergence herbicide test; assay type: in vivo, Echinochloa crus-galli; settings: for Barnyardgrass plant response rating: postemergence, scale 0 (no effect) to 100 (complete control)
Summary of the method: as §2

[6] = test system: morningglory; assay: Test B pre-/postemergence herbicide test; assay type: in vivo, Ipomoea coccinea; settings: for Morningglory plant response rating: postemergence, scale 0 (no effect) to 100 (complete control)
Summary of the method: as §2

[7] = test system: barnyardgrass; assay: Test B flooded paddy test; assay type: in vivo, Echinochloa crus-galli; settings: 1000 g ai/ha, scale 0 to 100 (0 no effect, 100 complete control)
Summary of the method: as §1

[8] = test system: wild oat; assay: Test B postemergence herbicide test; assay type: in vivo, Avena fatua; settings: postemergence, visual rating, scale 0 (no effect) to 100 (complete control)
Summary of the method: as §4

[9] = test system: barnyardgrass; assay: Test C flooded paddy test; assay type: in vivo, Echinochloa crus-galli
Summary of the method: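 Greenhouse test with a 12–14 day hold after application and visual comparison with controls. Emerged plants were 1- to 4-leaf stage (2–18 cm) when sprayed postemergence, and the paddy barnyardgrass was at 2 leaves under flooded conditions. 100 = complete control.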

[10] = test system: large crabgrass; assay: Test B pre-/postemergence herbicide test; assay type: in vivo, Digitaria sanguinalis; settings: for Crabgrass, Large plant response rating: postemergence, scale 0 (no effect) to 100 (complete control)
Summary of the method: as §3

[11] = test system: lambsquarters; assay: Test B pre-/postemergence herbicide test; assay type: in vivo, Chenopodium album; settings: for Lambsquarters plant response rating: postemergence, scale 0 (no effect) to 100 (complete control)
Summary of the method: as §3

[12] = test system: velvetleaf; assay: Test B pre-/postemergence herbicide test; assay type: in vivo, Abutilon theophrasti; settings: for Velvetleaf plant response rating: postemergence, scale 0 (no effect) to 100 (complete control)
Summary of the method: as §3

[13] = test system: ducksalad; assay: Test B flooded paddy test; assay type: in vivo, Heteranthera limosa; settings: 1000 g ai/ha, scale 0 to 100 (0 no effect, 100 complete control)
Summary of the method: as §1

[14] = test system: small flower umbrella sedge; assay: Test B flooded paddy test; assay type: in vivo, Cyperus difformis; settings: 1000 g ai/ha, scale 0 to 100 (0 no effect, 100 complete control)
Summary of the method: as §1

[15] = test system: Surinam grass; assay: Test B pre-/postemergence herbicide test; assay type: in vivo, Urochloa decumbens; settings: for Surinam Grass plant response rating: postemergence, scale 0 (no effect) to 100 (complete control)
Summary of the method: as §3

[16] = test system: rice; assay: Test B flooded paddy test; assay type: in vivo, Oryza sativa; settings: 1000 g ai/ha, scale 0 to 100 (0 no effect, 100 complete control)
Summary of the method: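 Postemergence plants were sprayed with formulated test chemicals at 2 to 18 cm height (1- to 4-leaf stage); paddy species were grown to the 2-leaf stage. After 13 to 15 days in a greenhouse, injury was rated visually against untreated controls on a 0–100 scale (0 = no effect, 100 = complete control).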

[17] = test system: ducksalad; assay: Test C flooded paddy test; assay type: in vivo, Heteranthera limosa
[18] = test system: smallflower umbrella sedge; assay: Test C flooded paddy test; assay type: in vivo, Cyperus difformis
[19] = test system: pigweed; assay: Test B pre-/postemergence herbicide test; assay type: in vivo, Amaranthus retroflexus; settings: for Pigweed plant response rating: postemergence, scale 0 (no effect) to 100 (complete control)
Summary of the method: as §3

[20] = test system: rice; assay: Test C flooded paddy test; assay type: in vivo, Oryza sativa
Summary of the method: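 Plants were grown to the 1- to 4-leaf stage (2–18 cm) and then treated postemergence, or grown to the 2-leaf stage for the flooded paddy test. They were held in a greenhouse for 12 to 14 days and then scored by eye against controls, where 0 is no effect and 100 is complete control.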

[21] = test system: corn; assay: Test B pre-/postemergence herbicide test; assay type: in vivo, Zea mays; settings: for Corn plant response rating: postemergence, scale 0 (no effect) to 100 (complete control)
Summary of the method: as §3

[22] = test system: giant foxtail; assay: Test B pre-/postemergence herbicide test; assay type: in vivo, Setaria faberi; settings: for Foxtail, Giant plant response rating: postemergence, scale 0 (no effect) to 100 (complete control)
Summary of the method: as §3

[23] = 125 g ai/ha, 0 = no effect, 100 = complete control, preemergence
[24] = 500 g ai/ha, visual rating, 0 = no effect, 100 = complete control, preemergence
[25] = 62 g ai/ha, scale 0 to 100 (0 no effect, 100 complete control)
[26] = 125 g ai/ha, scale 0 to 100 (0 no effect, 100 complete control)
[27] = 250 g ai/ha, scale of 0 to 100, 0 is no effect, 100 is complete control
[28] = 500 g ai/ha, visual rating after 12 to 14 days, scale 0 to 100 (0 no effect, 100 complete control)

CCc1nc(C(C)(C)C)sc1C(=O)Nc1cc(C(=O)N(C)CC)ccc1F [Compound 231]
Blackgrass plant response rating ([1]; 125 g ai/ha): 20 | Blackgrass plant response rating ([1]; 500 g ai/ha): 30 | Cocklebur plant response rating (0 to 100 scale) [2, 23]: 0 | Plant response rating, Cocklebur [2, 24]: 30 | Cocklebur plant response rating ([2]; 125 g ai/ha, visual rating): 10 | Cocklebur plant response rating ([2]; 500 g ai/ha, visual rating): 40 | Rice plant response rating (0 to 100 scale) ([3]; 125 g ai/ha): 20 | Plant response rating, Rice ([3]; 500 g ai/ha, visual rating): 50 | Wheat plant response rating ([4]; 125 g ai/ha): 20 | Wheat plant response rating ([4]; 500 g ai/ha): 40 | Barnyardgrass plant response rating (0 to 100 scale) [5, 23]: 50 | Plant response rating, Barnyardgrass [5, 24]: 80 | Barnyardgrass plant response rating ([5]; 125 g ai/ha, visual rating): 10 | Barnyardgrass plant response rating ([5]; 500 g ai/ha, visual rating): 40 | Morningglory plant response rating (0 to 100 scale) [6, 23]: 10 | Plant response rating, Morningglory [6, 24]: 10 | Morningglory plant response rating ([6]; 125 g ai/ha, visual rating): 20 | Morningglory plant response rating ([6]; 500 g ai/ha, visual rating): 70 | Barnyardgrass plant response rating [7]: 80 | Oat, Wild plant response rating ([8]; 125 g ai/ha): 20 | Oat, Wild plant response rating ([8]; 500 g ai/ha): 40 | Barnyardgrass plant response rating [9, 25]: 40 | Barnyardgrass plant response rating [9, 26]: 45 | Barnyardgrass plant response rating [9, 27]: 75 | Plant response rating, Barnyardgrass [9, 28]: 80 | Crabgrass, Large plant response rating (0 to 100 scale) [10, 23]: 30 | Plant response rating, Crabgrass, Large [10, 24]: 90 | Crabgrass, Large plant response rating ([10]; 125 g ai/ha, visual rating): 20 | Crabgrass, Large plant response rating ([10]; 500 g ai/ha, visual rating): 20 | Lambsquarters plant response rating (0 to 100 scale) [11, 23]: 80 | Plant response rating, Lambsquarters [11, 24]: 100 | Lambsquarters plant response rating ([11]; 125 g ai/ha, visual rating): 60 | Lambsquarters plant response rating ([11]; 500 g ai/ha, visual rating): 70 | Velvetleaf plant response rating (0 to 100 scale) [12, 23]: 30 | Plant response rating, Velvetleaf [12, 24]: 90 | Velvetleaf plant response rating ([12]; 125 g ai/ha, visual rating): 30 | Velvetleaf plant response rating ([12]; 500 g ai/ha, visual rating): 50 | Ducksalad plant response rating [13]: 90 | Sedge, Umbrella plant response rating [14]: 90 | Surinam Grass plant response rating (0 to 100 scale) [15, 23]: 20 | Plant response rating, Surinam Grass [15, 24]: 60 | Surinam Grass plant response rating ([15]; 125 g ai/ha, visual rating): 10 | Surinam Grass plant response rating ([15]; 500 g ai/ha, visual rating): 30 | Rice plant response rating [16]: 80 | Ducksalad plant response rating [17, 25]: 10 | Ducksalad plant response rating [17, 26]: 60 | Ducksalad plant response rating [17, 27]: 70 | Plant response rating, Ducksalad [17, 28]: 80 | Sedge, Umbrella plant response rating [18, 25]: 10 | Sedge, Umbrella plant response rating [18, 26]: 55 | Sedge, Umbrella plant response rating [18, 27]: 65 | Plant response rating, Sedge, Umbrella [18, 28]: 75 | Pigweed plant response rating (0 to 100 scale) [19, 23]: 60 | Plant response rating, Pigweed [19, 24]: 100 | Pigweed plant response rating ([19]; 125 g ai/ha, visual rating): 50 | Pigweed plant response rating ([19]; 500 g ai/ha, visual rating): 70 | Rice plant response rating [20, 25]: 30 | Rice plant response rating [20, 26]: 55 | Rice plant response rating [20, 27]: 75 | Plant response rating, Rice [20, 28]: 80 | Corn plant response rating (0 to 100 scale) [21, 23]: 0 | Plant response rating, Corn [21, 24]: 50 | Corn plant response rating ([21]; 125 g ai/ha, visual rating): 10 | Corn plant response rating ([21]; 500 g ai/ha, visual rating): 20 | Foxtail, Giant plant response rating (0 to 100 scale) [22, 23]: 60 | Plant response rating, Foxtail, Giant [22, 24]: 90 | Foxtail, Giant plant response rating ([22]; 125 g ai/ha, visual rating): 20 | Foxtail, Giant plant response rating ([22]; 500 g ai/ha, visual rating): 30

— patent US20060069132A1, “Azolecarboxamide herbicides” (priority 2004, published 2006)
